From paper PMC7850479, “A drug repurposing screen identifies hepatitis C antivirals as inhibitors of the SARS-CoV2 main protease” (PLoS ONE, 2021)
Read-outs that look alike come from different tables or passages of the source. Residues, ends and D or L forms follow the SMILES beside them.

Key:
SARS-CoV-2 Mpro [1] = target: T1, SARS-CoV-2 Mpro (Severe acute respiratory syndrome coronavirus 2, UniProt P0DTD1); assay: Dose validation assay (10-point dose-response), fluorescent Mpro protease assay with Ac-Abu-Tle-Leu-Gln-AFC; format: biochemical; details: for IC50 / Hill Slope: 80nM Mpro, 32μM Ac-Abu-Tle-Leu-Gln-AFC, n = 3, 4-parameter nonlinear regression; for IC50: 10 concentrations 150 μM to 7.6 nM
SARS-CoV-2 Mpro [2] = target: T1, SARS-CoV-2 Mpro; format: biochemical
NS3 protease variants = details: HCV NS3 single amino acid mutations; cited from earlier work
SARS-CoV-2 = details: cellular model of viral replication; read-out: EC50, SARS-CoV-2 antiviral activity; cited from earlier work
HCV protease = details: cited from earlier work
Covid-19 patients = system: Covid-19 patients; parameters: method as in PMID 32445440; details: cohort of 1062 patients, placebo control 15 days; cited from earlier work
[3] = Z-score in the protease inhibition assay, ΔRFU at 10 minutes, 50 μM compound, substrate not stated

In the case of O=c1c2ccccc2[se]n1-c1ccccc1 [Ebselen], the “dose response against Mpro cleavage of substrate Ac-Abu-Tle-Leu-Gln-AFC” value (SARS-CoV-2 Mpro [1]; result in words, S1 Fig) is reported as “failed to show a significant dose response”.

For CCOC(=O)c1ccc(N2NC(=O)/C(=C/c3ccc([N+](=O)[O-])o3)C2=O)cc1 [PYR-41], the IC50 (SARS-CoV-2 Mpro [1]) was 17.4 µM and the “Hill Slope” value (SARS-CoV-2 Mpro [1]) was 0.9933.

Work on C[C@H](NC(=O)[C@@H](Cc1c[nH]c2ccccc12)NC(=O)[C@@H](N)Cc1cnc[nH]1)C(=O)N[C@@H](Cc1c[nH]c2ccccc12)C(=O)N[C@H](Cc1ccccc1)C(=O)N[C@@H](CCCCN)C(N)=O [U-75799E] (HELM PEPTIDE1{H.[dW].A.W.[dF].K.[am]}$$$$V2.0) yielded a Z10 (SARS-CoV-2 Mpro [2]) of 1.044.

With OC[C@H]1O[C@H]([S-])[C@H](O)[C@@H](O)[C@@H]1O.[Au+] [aurothioglucose] the IC50 (SARS-CoV-2 Mpro [1]) was 13.3 µM and the “Hill Slope” value (SARS-CoV-2 Mpro [1]) was 1.496.

For CC(C)(C)NC(=O)N[C@H](C(=O)N1C[C@H]2[C@@H]([C@H]1C(=O)NC(CC1CCC1)C(=O)C(N)=O)C2(C)C)C(C)(C)C (stereo partly shown) [boceprevir], the “reduction in activity caused by single amino acid mutations” value (NS3 protease variants) is listed as “up to 120 fold”, the “Hill Slope” value (SARS-CoV-2 Mpro [1]) is listed as 0.4123 and the “reduction in potency against enzymatic activity, SARS-CoV-2 Mpro compared to HCV protease” value (SARS-CoV-2 Mpro [1]; ~1 μM for Mpro versus below 90 nM for HCV protease) is listed as 10 fold. The EC50 (SARS-CoV-2) was 1.95 ± 1.62 µM and the IC50 (HCV protease) was less than 0.09 µM.

In the case of CCCC[C@@H](C=O)NC(=O)[C@H](CC(C)C)NC(=O)OCc1ccccc1 [calpeptin], the “Hill Slope” value (SARS-CoV-2 Mpro [1]) is reported as 1.009.

In the case of COc1ccc2c(O[C@@H]3C[C@H]4C(=O)N[C@]5(C(=O)O)C[C@H]5/C=C\CCCCC[C@H](NC(=O)OC5CCCC5)C(=O)N4C3)cc(-c3csc(NC(C)C)n3)nc2c1 [ciluprevir], the IC50 (SARS-CoV-2 Mpro [1]) is reported as 20.8 µM and the “Hill Slope” value (SARS-CoV-2 Mpro [1]) is reported as 1.133.

Work on CC(=O)N(CC(O)CN(C(C)=O)c1c(I)c(C(=O)NCC(O)CO)c(I)c(C(=O)NCC(O)CO)c1I)c1c(I)c(C(=O)NCC(O)CO)c(I)c(C(=O)NCC(O)CO)c1I (stereo not shown) [iodixanol] yielded a Z10 (SARS-CoV-2 Mpro [2]; [3]) of -0.9551.

For CCCC[C@H](NC(=O)[C@@H]1[C@@H]2[C@H](CN1C(=O)[C@@H](NC(=O)NC1(CS(=O)(=O)C(C)(C)C)CCCCC1)C(C)(C)C)C2(C)C)C(=O)C(=O)NC1CC1 [narlaprevir], the “Hill Slope” value (SARS-CoV-2 Mpro [1]) was 0.9106.

For CCC(CC)COC(=O)[C@H](C)N[P@](=O)(OC[C@H]1O[C@@](C#N)(c2ccc3c(N)ncnn23)[C@H](O)[C@@H]1O)Oc1ccccc1 [remdesivir], the period of recovery (Covid-19 patients) is listed as 10 days.

In the case of CCC[C@H](NC(=O)[C@@H]1[C@H]2CCC[C@H]2CN1C(=O)[C@@H](NC(=O)[C@@H](NC(=O)c1cnccn1)C1CCCCC1)C(C)(C)C)C(=O)C(=O)NC1CC1 [telaprevir], the “Hill Slope” value (SARS-CoV-2 Mpro [1]) is reported as 1.062.

dalargin showed a Z10 (SARS-CoV-2 Mpro [2]; [3]) of -1.032.

desmopressin-acetate gave a Z10 (SARS-CoV-2 Mpro [2]; [3]) of -0.4942.

For hemin, the IC50 (SARS-CoV-2 Mpro [1]) was 9.68 µM and the “Hill Slope” value (SARS-CoV-2 Mpro [1]) was 1.354.
